Source: patent publication EP0139983A1, “Crystalline salts of L or (S)-3-(3,4-dihydroxyphenyl)-2-methylalanine esters and process” (Merck & Co., Inc., priority 1983, dated 1985)
Structures can show the parent of a compound that is named as a salt. Where two headings read alike, the source gives them in different places.

Tests used:
[1] = Solubility in aqueous media; format: physicochemical; details: salt solubility is system dependent (amount of salt present, relative amount of (R) and (S) salts)
[2] = Stability (aqueous environment, mechanical stress, heat and compression); format: physicochemical; details: subjected to an aqueous environment or to mechanical stress such as grinding

solubility [1] [grams per liter] | Compound | also measured
156 to 383 | CC(OC(=O)C(C)(C)C)OC(=O)C(C)(N)Cc1ccc(O)c(O)c1 (stereo not shown) [solvated tartaric acid salt mixture] | 
 | CC(OC(=O)C(C)(C)C)OC(=O)[C@@](C)(N)Cc1ccc(O)c(O)c1 (stereo partly drawn) [POE ester bases, (R,S)-l-pivaloyloxyethyl (S)-3-(3,4-dihydroxyphenyl)-2-methylalaninate] | stability [2]: tend to be unstable
 | C[C@](N)(Cc1ccc(O)c(O)c1)C(=O)O (single isomer, unassigned) [methyldopa, L or (S)-3-(3,4-dihydroxyphenyl)-2-methylalanine] | solubility ([1]; read-out: solubility): 10000 µg/mL
57 to 197 | CC(OC(=O)C(C)(C)C)OC(=O)C(C)(N)Cc1ccc(O)c(O)c1 (mixture of isomers) [solvated phosphate salt mixture of (R,S)-POE ester of methyl] | 
